System: representative oral bacteria S. mutans, F. nucleatum, V. parvula, A. naslundii, P. gingivitis
Assay: Bactericidal properties in in vitro tests
Type: cell-based
Description: As referred to herein, the expressions “extract of magnolia” or “magnolia extract” denote an extract from dried cortex, or bark, of a plant from the Magnoliaceae family, such as Magnolia officinalis, (hereinafter “magnolia”), or a synthetic or semi-synthetic equivalent of such an extract or an active component thereof. […] In other embodiments, the oral composition comprises an extract of magnolia. […] It should be noted that any plant from the Magnoliaceae family is suitable for extracting the active ingredients used in the present embodiment.

## CCCc1ccc(O)c(-c2cc(CCC)ccc2O)c1 [tetrahydromagnolol, 5,5′-dipropylbiphenyl-2,2′-diol]
  bactericidal properties against representative oral bacteria: demonstrated bactericidal properties

## C=CCc1ccc(O)c(-c2ccc(O)c(CC=C)c2)c1 [honokiol]
  bactericidal properties against representative oral bacteria: demonstrated bactericidal properties

## C=CCc1ccc(O)c(-c2cc(CC=C)ccc2O)c1 [magnolol]
  bactericidal properties against representative oral bacteria: demonstrated bactericidal properties

## CCCc1ccc(O)c(-c2ccc(O)c(CCC)c2)c1 [tetrahydrohonokiol, 3′,5-dipropylbiphenyl-2,4′-diol]
  bactericidal properties against representative oral bacteria: demonstrated bactericidal properties
